Source: US10799501B2, “Combination of an inhibitor of PARP with an inhibitor of GSK-3 or DOT1L” (King's College London, priority 2015, dated 2020)

Tests used:
MLL LSC = test: Colony formation and differentiation of MLL LSC with PARPi, LiCl or combination; assay type: cell-based, mouse; conditions: seven days; 8 mM LiCl, 1 μM Olaparib
Method: Colonies were scored 6-7 days after plating. For other in vitro studies, mouse leukemic cells and primary AML cell lines were subjected to continuously Olaparib (1 μM) or LiCl (8 mM) treatment in liquid culture for whole duration as indicated in the figures or figure legends. For human leukemic cell lines, experiments were performed as described above with 5 μM Olaparib. 1×10^5 cells were cytospun for 5 min at 300 g onto glass slides. Slides were then stained with May-Grunwald solution (Sigma-Aldrich) for 3 min at room temperature. After washing in water, they were incubated for 20 min in Giemsa solution (Sigma-Aldrich) (1:20 in water). Slides were washed again in water before being mounted with Mowiol. Cells were counted in at least 5 fields for each slide, for a total of over 100 cells per condition. NBT reduction assay were performed to determine myeloid differentiation. 0.1% of NBT (final concentration) was added to the liquid culture or semi-solid methocult and incubated at 37° C. CO2 incubator for 3 hrs and 12 hrs, respectively. Cells were then washed in PBS and the differentiated cells were indicated by the deposition of dark blue insoluble formazan (NBT positive cells) and the percentage of differentiated cells were counted under microscopy. At least 200 cells were counted in most of the cases.

NB4-LR2 (PML-RARα) = test: Humanized xenograft: NSG mice transplanted with NB4-LR2 cells, Olaparib treatment; assay type: in vivo, mouse
Method: We established humanized models of AML1-ETO and PML-RARα leukemia in sub-lethally irradiated NOD/SCID/IL2Rg−/−(NSG, 1 dose 200 RADs) by transplanting 2×10^6 Kasumi (intra-femoral, IF) and 1×10^5 NB4-LR2 or 1×10^5 THP1 (intravenous, IV) cells. The day after the transplantation, mice were split into two groups and given intra-peritoneal injections of vehicle (10% HBC) or Olaparib (25 mg/kg in 10% HBC) daily for 2-4 weeks. The maximum tolerable dose was calculated by in vivo dose-response experiments. Mice were monitored daily until they developed symptoms of leukemia, when they were culled and bone marrow, spleen and liver harvested and analyzed by FACS. The engraftment of human donor cells was defined as human CD45/CD33 double positive by FACS.

[1] = tested on: MLL-AF9 Hoxa9−/− transformed cells; test: In vitro PARPi treatment of MLL-AF9 transformed cells from Hoxa9−/− background; assay type: cell-based, mouse
Method: Transduction using concentrated viral supernatant expressing the oncogene of interest was carried out by centrifugation (spinoculation) at 800 g at 32° C. for 2 hours in the presence of 5 μg ml^-1 polybrene (Sigma-Aldrich). Cells were subsequently plated in 1% methylcellulose medium ([…]; Stem Cell Technologies) containing 20 ngml^-1 SCF, 10 ngml^-1 IL-3, 10 ngml^-1 IL-6 and 10 ngml^-1 granulocyte macrophage colony-stimulating factor (GM-CSF) and appropriate selection antibiotic. Colonies were counted after 7 days of culture and replated every 6-7 days at 5×103-1.5×10^4 cell density. Re-plating was performed weekly to generate primary cell lines for further analysis. After the third or fourth round of plating, cells were cultured in R20/20 medium (RPMI 1640, 20% FCS, 20% WEHI-conditioned medium, 2 mM L-glutamine, 100 U/ml penicillin, and 100 μg/ml streptomycin) supplemented with 20 ngml^-1 stem cell factor (SCF), 10 ngml^-1 interleukin (IL)-3, and 10 ngml^-1 IL-6 to establish cell lines. All recombinant murine cytokines were from PeprotechEC. […] Colonies were scored 6-7 days after plating. […] Cells were counted in at least 5 fields for each slide, for a total of over 100 cells. The percentage of senescent cells was calculated by the percentage of the number of blue cell in the field.

[2] = NSG mice succumbed with NB4-LR2 driven disease, Olaparib 25 mg/kg i.p. daily

O=C(c1cc(Cc2n[nH]c(=O)c3ccccc23)ccc1F)N1CCN(C(=O)C2CC2)CC1 [Olaparib, 4-[(3-[(4-cyclopropylcarbonyl)piperazin-4-yl]carbonyl)-4-fluorophenyl]methyl(2H)-phthalazin-1-one]
colony forming ability / leukemic cell growth (MLL LSC): ineffective | BM Engraftment (%) (NB4-LR2 (PML-RARα); [2]): 40.27 ± 23.73% | Disease Latency (days; median) (NB4-LR2 (PML-RARα); [2]): 51 days | Hematopoietic Liver Engraftment (%) (NB4-LR2 (PML-RARα); [2]): 58.99 ± 27.07% | Hematopoietic Spleen Engraftment (%) (NB4-LR2 (PML-RARα); [2]): 33.39 ± 25.3% | Liver (NB4-LR2 (PML-RARα); [2]): 2.415 ± 1.844 g | Spleen (NB4-LR2 (PML-RARα); [2]): 0.5226 ± 0.5279 g | disease onset induced by ATRA-resistant APL cells (NB4-LR2 (PML-RARα); single agent, NB4-LR2 xenograft): effectively suppress disease onset | senescence (β-galactosidase staining) ([1]; 48 hrs PARPi treatment): induction of senescence | colony forming ability and differentiation ([1]; seven days in methylcellulose with PARPi): significant suppression of colony forming ability and differentiation
